Test results as given in ChEMBL document CHEMBL1201862, “PubChem BioAssay data set” (2004).
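Each compound was tested at five concentrations against cells in 96-well plates for 48 hours. Here, GI50 denotes the concentration required for 50% inhibition of growth.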 Activity calls are given as the source filed them. Rule as the data show it: active = GI50 up to about 1.1 µM and inactive = higher.

What was measured:
Assay in all cases: NCI-60 cell line screen, 48 h
[1] = test system: 786-0
[2] = test system: A498
[3] = test system: A549
[4] = test system: ACHN
[5] = test system: BT-549
[6] = test system: CAKI-1
[7] = test system: CCRF-CEM
[8] = test system: COLO 205
[9] = test system: DU-145
[10] = test system: EKVX
[11] = test system: HCC 2998
[12] = test system: HCT-116
[13] = test system: HCT-15
[14] = test system: HL-60
[15] = test system: HOP-62
[16] = test system: HOP-92
[17] = test system: HT-29
[18] = test system: Hs-578T
[19] = test system: IGROV-1
[20] = test system: K562
[21] = test system: LOX IMVI
[22] = test system: M14
[23] = test system: MCF7
[24] = test system: MDA-MB-231
[25] = test system: MDA-MB-435
[26] = test system: MDA-N
[27] = test system: MOLT-4
[28] = test system: Malme-3M
[29] = test system: NCI-H226
[30] = test system: NCI-H23
[31] = test system: NCI-H460
[32] = test system: NCI-H522
[33] = test system: NCI/ADR-RES
[34] = test system: OVCAR-3
[35] = test system: OVCAR-4
[36] = test system: OVCAR-5
[37] = test system: OVCAR-8
[38] = test system: PC-3
[39] = test system: RPMI-8226
[40] = test system: RXF 393
[41] = test system: SF-268
[42] = test system: SF-295
[43] = test system: SF-539
[44] = test system: SK-MEL-28
[45] = test system: SK-MEL-2
[46] = test system: SK-MEL-5
[47] = test system: SK-OV-3
[48] = test system: SN12C
[49] = test system: SNB-19
[50] = test system: SNB-75
[51] = test system: SR
[52] = test system: SW-620
[53] = test system: T47D
[54] = test system: TK-10
[55] = test system: U-251
[56] = test system: UACC-257
[57] = test system: UACC-62
[58] = test system: UO-31
[59] = test system: KM12

COc1ccc(CSC2=C(C#N)C(=O)NC3(CCCCC3)S2)cc1
GI50 [1]: 64.1 µM (inactive)
GI50 [2]: > 63.5 µM (inactive)
GI50 [3]: > 83.8 µM (inactive)
GI50 [4]: > 93.5 µM (inactive)
GI50 [5]: 48.2 µM (inactive)
GI50 [6]: 77.6 µM (inactive)
GI50 [7]: 2.66 µM (inactive)
GI50 [8]: > 61.8 µM (inactive)
GI50 [9]: > 85.7 µM (inactive)
GI50 [10]: 54 µM (inactive)
GI50 [11]: 28.2 µM (inactive)
GI50 [12]: 44.5 µM (inactive)
GI50 [13]: 57.8 µM
GI50 [14]: 3.63 µM (inactive)
GI50 [15]: 61.8 µM (inactive)
GI50 [16]: > 55.7 µM (inactive)
GI50 [17]: 38.1 µM (inactive)
GI50 [18]: 41.9 µM (inactive)
GI50 [19]: > 69.7 µM (inactive)
GI50 [20]: > 50 µM (inactive)
GI50 [21]: 30.1 µM (inactive)
GI50 [22]: 42.2 µM (inactive)
GI50 [23]: 34.2 µM (inactive)
GI50 [24]: > 76.4 µM (inactive)
GI50 [25]: 19 µM (inactive)
GI50 [26]: 22.4 µM (inactive)
GI50 [27]: 36.9 µM (inactive)
GI50 [28]: 54.5 µM (inactive)
GI50 [29]: > 100 µM (inactive)
GI50 [30]: 48.8 µM (inactive)
GI50 [31]: 69 µM (inactive)
GI50 [32]: 24.2 µM (inactive)
GI50 [33]: 49.7 µM (inactive)
GI50 [34]: 35.2 µM (inactive)
GI50 [35]: 36.6 µM (inactive)
GI50 [36]: > 100 µM (inactive)
GI50 [37]: > 59.3 µM (inactive)
GI50 [38]: 74.8 µM (inactive)
GI50 [39]: > 56.6 µM (inactive)
GI50 [40]: 30.5 µM (inactive)
GI50 [41]: 47.1 µM (inactive)
GI50 [42]: 51.6 µM (inactive)
GI50 [43]: > 56.6 µM (inactive)
GI50 [44]: > 73.6 µM (inactive)
GI50 [45]: 38.6 µM (inactive)
GI50 [46]: 42.5 µM (inactive)
GI50 [47]: 44.7 µM (inactive)
GI50 [48]: 65.2 µM (inactive)
GI50 [49]: 54.5 µM (inactive)
GI50 [50]: 62.2 µM (inactive)
GI50 [51]: 71.3 µM (inactive)
GI50 [52]: 32.6 µM (inactive)
GI50 [53]: 27.5 µM (inactive)
GI50 [54]: > 95.5 µM (inactive)
GI50 [55]: 48.4 µM (inactive)
GI50 [56]: > 81.7 µM (inactive)
GI50 [57]: 61.4 µM (inactive)
GI50 [58]: 96.4 µM (inactive)

COc1cc(C=O)cc(/C=N/c2ccc(Br)cc2)c1O
GI50 [2]: 16.4 µM (inactive)
GI50 [3]: 4.85 µM (inactive)
GI50 [4]: 2.53 µM (inactive)
GI50 [5]: 6.25 µM (inactive)
GI50 [6]: 2.93 µM (inactive)
GI50 [7]: 7.59 µM (inactive)
GI50 [8]: 4.09 µM (inactive)
GI50 [9]: 11.3 µM (inactive)
GI50 [10]: 13.6 µM (inactive)
GI50 [11]: 14.1 µM (inactive)
GI50 [12]: 6.79 µM (inactive)
GI50 [13]: 2.15 µM
GI50 [14]: 2.11 µM (inactive)
GI50 [15]: 11.7 µM (inactive)
GI50 [16]: 3.53 µM (inactive)
GI50 [17]: 17.7 µM (inactive)
GI50 [18]: 1.8 µM (inactive)
GI50 [19]: 40.3 µM (inactive)
GI50 [20]: 0.555 µM (active)
GI50 [59]: 10.2 µM (inactive)
GI50 [21]: 0.16 µM (active)
GI50 [22]: 1.66 µM (inactive)
GI50 [23]: 4.47 µM (inactive)
GI50 [24]: 4.44 µM (inactive)
GI50 [25]: 1.05 µM (active)
GI50 [26]: 3.72 µM (inactive)
GI50 [27]: 22 µM (inactive)
GI50 [28]: 4.04 µM (inactive)
GI50 [29]: 2.59 µM (inactive)
GI50 [30]: 17.7 µM (inactive)
GI50 [31]: 2.71 µM (inactive)
GI50 [32]: 0.995 µM (active)
GI50 [33]: 2.49 µM (inactive)
GI50 [34]: 13.5 µM (inactive)
GI50 [35]: 22.5 µM (inactive)
GI50 [36]: 24.5 µM (inactive)
GI50 [37]: 2.86 µM (inactive)
GI50 [38]: 2.81 µM (inactive)
GI50 [39]: 3.33 µM (inactive)
GI50 [40]: 4.43 µM (inactive)
GI50 [41]: 1.66 µM (inactive)
GI50 [42]: 2.52 µM (inactive)
GI50 [43]: 2.38 µM (inactive)
GI50 [44]: 6.71 µM (inactive)
GI50 [45]: 2.78 µM (inactive)
GI50 [46]: 2.19 µM (inactive)
GI50 [47]: 2.17 µM (inactive)
GI50 [48]: 4.13 µM (inactive)
GI50 [49]: 12.7 µM (inactive)
GI50 [50]: 23.8 µM (inactive)
GI50 [51]: 2.68 µM (inactive)
GI50 [52]: 1.25 µM (inactive)
GI50 [53]: 1.15 µM (inactive)
GI50 [54]: 32.4 µM (inactive)
GI50 [55]: 4.57 µM (inactive)
GI50 [56]: 5.75 µM (inactive)
GI50 [57]: 0.347 µM (active)
GI50 [58]: 3.2 µM (inactive)
